Common to all, as to type: cell-based
Experiment [1] deals with HUMAN RSV-A (“LONG” STRAIN). As to the kind of experiment: RSV-A assay (CPE, ATPlite) in Hep-2 cells. As to conditions: human respiratory syncytial virus, 120 h, MOI 0.1, 5-day incubation. The source says: Methods for RSV-A Assay Hep-2 cells, (originally derived from tumors grown in irradiated-cortisonised weanling rats that had been injected with epidermoid carcinoma tissue from the larynx of a person, but later found to be indistinguishable from HeLa cells by PCR DNA analysis), were used for the culturing of genotype A, “Long” strain RSV. Flasks were inoculated with RSV and viral stocks were collected once cytopathic effect (CPE) was greater than 90%. Viral stocks in 25% sucrose media were snap frozen using liquid nitrogen to increase viral stability. Viral stock titers were quantified by tissue culture infectious dose 50% (TCID50) using 8,000 cells per well and 3-fold viral dilutions across a 96-well plate, cultured for 4 days. Viral stock titers were also quantified by a plaque forming unit assay, as described elsewhere.
Following extensive parameter testing, the final assay is run as follows: Hep-2 cells are seeded into the inner 60 wells of a 96-well plate at 8,000 cells per well in a volume of 50 μL using Growth Media (DMEM without phenol red, 1% L-Glut, 1% Penn/Strep, 1% nonessential amino acids, 10% heat-inactivated FBS). 2-fold serial dilutions of control and test compounds are added to the wells in duplicate in a total volume of 25 μL. Viral stock is then added to the wells at a multiplicity of infection (MOI) of 0.1 in a volume of 25 μL, bringing the total volume of each well to 100 μL. The MOI is calculated using the PFU/mL, or TCID50 if unavailable. Each 96-well plate has a control column of 6 wells with cells and virus but no compound (negative control, max CPE), a column with cells but no compound or virus (positive control, minimum CPE), and a column with no cells or virus or compound (background plate/reagent control). The control wells with cells but no virus are given an additional 25 μL of growth media containing an equal quantity of sucrose as those wells receiving the viral stock in order to keep consistent in media and volume conditions. The outer wells of the plate are filled with 125 μL of moat media (DMEM, 1% Penn/Strep) to act as a thermal and evaporative moat around the test wells. Following a 5-day incubation period, the plates are read using ATPlite (50 uL added per well), which quantifies the amount of ATP (a measure of cell health) present in each well. Assay plates are read using the Envision luminometer. […] EC50 ranges are as follows: A<0.2 μM; B>0.2 μM.
(In general: Cellular ATP, detected with luciferase, serves as a proxy for viable cell number.)

Experiment [2] deals with hMPV A2 TN/94-49. Nature of the experiment: HMPV antiviral assay Method 1 (LLC-MK2 cells, ATP-Lite). As to conditions: hMPV A2 TN/94-49, LLC-MK2 cells. The method, then:
In vitro HMPV antiviral activity was evaluated using the clinical isolate A2 strain TN 94-49 (obtained from Dr. John Williams, Vanderbilt University, Tennessee) and […] cells (ATCC #CCL-7), an immortalized kidney epithelial cell line from Macaca mulatta. Compounds were resuspended in dimethyl sulfoxide (DMSO) at 10 mM, serially diluted and added to a 384-well source plate. Subsequently, the compounds were diluted and transferred onto 384-well assay plates using the Echo-650 automated liquid handling system (Beckman Coulter, Indiana). The test compounds were assessed in duplicate at a top concentration of 2 μM followed by 2.5-fold serial dilutions to give a total of 10 concentration points. DMSO control wells were also included on the assay plates and were either infected or not, acting as positive and negative controls. A2 TN 94-49 virus infections were performed in-suspension with LLC-MK2 cells. The cells were washed twice with PBS and removed from the cell-culture flask with 0.25% trypsin-EDTA (Thermo Fisher Scientific, MA). The trypsin-EDTA was inactivated by resuspending in 2% fetal bovine serum (FBS) and OptiMEM (ThermoFisher Scientific, MA) containing 1% penicillin-streptomycin. Cells were pelleted by centrifuging for 5 minutes at 800 rpm, the supernatant was removed, and cells were re-suspended and washed in PBS plus 100 μg/mL CaCl2). This step was performed twice. Cells were then re-suspended in serum-free (SF)-OptiMEM containing 4 μg/mL TPCK-Trypsin (Sigma Aldrich, MO), 1% penicillin-streptomycin (ThermoFisher Scientific, MA) and 100 μg/mL CaCl2). Cells were counted and seeded at a density of 5,000 cells/well, 12.5 μL/well. Virus infections were done at a multiplicity of infection (MOI) of 0.005 with 12.5 μL added per well. Virus infections were performed in infection media which contained SF-OptiMEM, 100 μg/mL CaCl2) and 1% penicillin-streptomycin. HMPV viral stocks are suspended in infection media+5% glycerol, thus an equal volume of infection media+5% glycerol was added to uninfected wells to equalize the final % glycerol across all wells of the assay plate. The final concentration of TPCK-trypsin was 2 μg/mL. The assay plates were incubated at 37° C., 5% CO2 for 7 days. After 7 days incubation, 12.5 μL of ATP-Lite (PerkinElmer, MA) was added to each well and the raw luminescence values were determined using the Envision 2104 (Perkin Elmer, MA). The average of the raw luminescence values for the cells and virus only positive control wells was subtracted from all conditions tested and the percent cell health was determined by dividing these values by the average of the cells only negative control wells. EC50 values were then calculated by non-linear regression using a four-parameter curve logistic equation. The curve fit model employed was XLFit Dose Response One Site Model 200: y=(A+(B/(1+((x/C)^D)))), where A is the minimum y value, B is the maximum y value, C is the log EC50value, and D is the slope factor. Method 2: In Vitro HMPV Antiviral Activity was Evaluated Using the Clinical Isolate A2 Strain TN 94-49

The test system of experiment [3] is hMPV A2 TN/94-49. Nature of the experiment: HMPV antiviral assay Method 2 (LLC-MK2 cells with CP-100-356, ATP-Lite). As to conditions: hMPV A2 TN/94-49, LLC-MK2 cells, 4 μM CP-100-356, Method 2. The essentials: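 LLC-MK2 cells infected in suspension with hMPV A2 TN/94-49 at MOI 0.16, in serum-free OptiMEM with final 2 μg/mL TPCK-trypsin and 2 μM CP-100-356 (P-gp inhibitor). Compounds tested in duplicate, top 200 nM, 2.5-fold, 10 points; 7 days at 37 °C. ATP-Lite cell health normalised to controls; EC50 by four-parameter fit.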

With `Cc1nc2c(OC(F)F)cc(C(=O)NC[C@@](O)(c3cccc(F)c3)c3cc4c(c(-c5cc(Cl)c(F)cc5F)n3)OC[C@]4(C)C(N)=O)cc2cc1Br` [Example 135], the half-maximal effective concentration (EC50) (commonly the concentration giving half of the maximal effect) is under 200 nM in experiment [1] and over 500 nM in experiment [2]. Turning to `COc1cc(C(=O)NC[C@](O)(c2cc3c(c(-c4cc(F)c(F)cc4F)n2)OC[C@]3(C)C(N)=O)C2CC2)cc2cc(C(F)(F)F)cnc12` [Example 46], the 50% effective concentration (EC50) in experiment [1] is under 200 nM; in experiment [2], over 500 nM.

In the case of `COc1cc(C(=O)NC[C@@](O)(c2ccsc2)c2cc3c(c(-c4cc(Cl)c(F)cc4F)n2)OC[C@]3(C)C(N)=O)cc2cn(C3CC3)nc12` [Example 173], the figures for the EC50 in experiment [1] and in experiment [2] were under 200 nM and under 500 nM, respectively. Taken in the same sequence, the figures for `COc1cc(C(=O)NC[C@@](O)(c2cccc(F)c2)c2cc3c(c(-c4cc(Cl)c(F)cc4F)n2)OC[C@]3(C)C(N)=O)cc2cn(C(F)F)nc12` [Example 134] were under 200 nM and under 500 nM. In the same order, the values of `COc1cc(C(=O)NC[C@@](O)(c2ccccc2)c2cc3c(c(-c4ccc5c(c4Cl)OC(F)(F)O5)n2)OC[C@]3(C)C(N)=O)cc2cn(C3(F)CC3)nc12` [Example 255] are under 200 nM and under 500 nM. In the case of `COc1cc(C(=O)NC[C@@](O)(c2ccccc2)c2cc3c(c(-c4cc(Cl)c(F)cc4F)n2)OC[C@]3(C)C(N)=O)cc2cc(C(F)(F)F)cnc12` [Example 83], the EC50 in experiment [2] was under 500 nM. `COc1cc(C(=O)NC[C@@](O)(c2ccccc2)c2cc3c(c(-c4cc(Cl)c(F)cc4F)n2)OC[C@]3(C)C(N)=O)cc2oc(C)nc12` [Example 84] returned a concentration giving a half-maximal response (EC50) in experiment [2] of under 500 nM. Still for that read-out and setting: then `C[C@]1(C(N)=O)COc2c1cc([C@@](O)(CNC(=O)c1ccc3nc(C(F)(F)F)oc3c1)c1ccccc1)nc2-c1cc(Cl)c(F)cc1F` [Example 82], with over 500 nM; and `COc1cc(C(=O)NC[C@@](O)(c2ccccc2)c2cc3c(c(-c4cc(Cl)c(F)cc4F)n2)OC[C@]3(C)C(N)=O)cc2ccc(C)nc12` [Example 79], with under 500 nM. `COc1cc(C(=O)NC[C@@](O)(c2cc3c(c(-c4cc(Cl)c(F)cc4F)n2)OC[C@]3(C)C(N)=O)c2cc(C)cs2)cc2cn(C3CC3)nc12` [Example 466] yielded a 50% effective concentration (EC50) in experiment [2] of over 500 nM. As for `COc1cc(C(=O)NC[C@@](O)(c2cccc(S(C)(=O)=O)c2)c2cc3c(c(-c4cc(Cl)c(F)cc4F)n2)OC[C@]3(C)C(N)=O)cc2cn(C3CC3)nc12` [Example 483], the concentration for a half-maximal effect (EC50) in experiment [1] and in experiment [3] was under 200 nM in each case.

In the case of `C[C@]1(C(N)=O)COc2c1cc([C@@](O)(CNC(=O)c1cc(OC3CC3)c3nn(C4(F)CC4)cc3c1)c1cccc(F)c1)nc2-c1cccc(Cl)c1Cl` [Example 339], the concentration for a half-maximal effect (EC50) in experiment [1] and in experiment [3] was under 200 nM in each case. Regarding `COc1cc([C@](O)(CNC(=O)c2cc(OC)c3nn(C(F)F)cc3c2)c2cc3c(c(-c4cccc(Cl)c4Cl)n2)OC[C@]3(C)C(N)=O)cc(OC)n1` [Example 498], the EC50 in experiment [1] and in experiment [3] was under 200 nM in each case. In the case of `COc1cc(C(=O)NC[C@@](O)(c2ccccc2)c2cc3c(c(-c4cc(C(F)(F)F)c(F)cc4F)n2)OC[C@]3(C)C(N)=O)cc2oc(C3CC3)nc12` [Example 305], the EC50 in experiment [1] and in experiment [3] was under 200 nM in each case.

As to `COc1cc(C(=O)NC[C@@](O)(c2cccc(F)n2)c2cc3c(c(-c4ccc(F)c(Cl)c4Cl)n2)OC[C@]3(C)C(N)=O)cc2cn(C3CC3)nc12` [Example 340], the EC50 in experiment [1] and in experiment [3] was under 200 nM each time. Regarding `COc1cc(C(=O)NC[C@@](O)(c2cccc(F)c2)c2cc3c(c(-c4ccc(C(C)(C)O)cc4)n2)OC[C@]3(C)C(N)=O)cc2cn(C3(F)CC3)nc12` [Example 397], the EC50 in experiment [1] and in experiment [3] was over 200 nM throughout.

On to `COc1cc(F)c(-c2nc([C@@](O)(CNC(=O)c3cc(OC)c4nn(C5(F)CC5)cc4c3)c3ccccc3)cc3c2OC[C@]3(C)C(N)=O)cc1F` [Example 363], for which the half-maximal effective concentration (EC50) is under 200 nM in experiment [1] and over 200 nM in experiment [3]. Turning to `COc1cc(C(=O)NC[C@@](O)(c2cnn(C)c2)c2cc3c(c(-c4cc(Cl)c(F)cc4F)n2)OC[C@]3(C)C(N)=O)cc2cn(C3CC3)nc12` [Example 153], the EC50 in experiment [1] and in experiment [3] was over 200 nM each time.

Take `COc1cccc([C@](O)(CNC(=O)c2cc(OC)c3nn(C4CC4)cc3c2)c2cc3c(c(-c4cccc(Cl)c4Cl)n2)OC[C@]3(C)C(N)=O)n1` [Example 496]: the concentration for a half-maximal effect (EC50) in experiment [1] and in experiment [3] was under 200 nM throughout.

Turning to `C[C@]1(C(N)=O)COc2c1cc([C@@](O)(CNC(=O)c1cc(OC3CC3)c3ncc(Cl)cc3c1)c1ccccc1)nc2-c1cc(Cl)c(F)cc1F` [Example 196], the concentration for a half-maximal effect (EC50) in experiment [1] and in experiment [3] was under 200 nM in each case. Turning to `C[C@]1(C(N)=O)COc2c1cc([C@@](O)(CNC(=O)c1cc(F)c3nn(C4CC4)cc3c1)c1ccccc1)nc2-c1cc(Cl)c(F)cc1F` [Example 100], the EC50 in experiment [1] and in experiment [3] was under 200 nM each time. As for `C[C@]1(C(N)=O)COc2c1cc([C@@](O)(CNC(=O)c1cc(Cl)c3[nH]ncc3c1)c1ccccc1)nc2-c1cc(Cl)c(F)cc1F` [Example 117], the concentration giving a half-maximal response (EC50) in experiment [1] is under 200 nM; in experiment [3] it was over 200 nM. With `COc1cc(C(=O)NC[C@@](O)(c2ccnc(C)c2)c2cc3c(c(-c4cc(Cl)c(F)cc4F)n2)OC[C@]3(C)C(N)=O)cc2cn(C3CC3)nc12` [Example 485], the EC50 in experiment [1] and in experiment [3] was under 200 nM throughout. `[2H]c1nc2c(OC)cc(C(=O)NC[C@@](O)(c3ccccc3)c3cc4c(c(-c5cc(Cl)c(F)cc5F)n3)OC[C@]4(C)C(N)=O)cc2cc1Cl` [Example 220]: the EC50 in experiment [1] and in experiment [3] was under 200 nM in each case. On to `COc1cc(C(=O)NC[C@@](O)(c2ccccc2)c2cc3c(c(-c4cc(F)c(F)cc4F)n2)OC[C@]3(C)C(N)=O)cc2oc(C3CC3)nc12` [Example 195], for which the concentration for a half-maximal effect (EC50) in experiment [1] and in experiment [3] was under 200 nM throughout.

As for `COc1cc(C(=O)NC[C@@](O)(c2ccccc2)c2cc3c(c(-c4cc(Cl)c(F)cc4F)n2)OC[C@]3(C)C(N)=O)cc2oc(C3(F)CC3)nc12` [Example 241], the concentration for a half-maximal effect (EC50) in experiment [1] and in experiment [3] was under 200 nM in each case.

Source of the values: patent US12358921B2, “Antiviral heterocyclic compounds” (priority 2022, dated 2025).
